Data: patent US9884832B2 (priority 2011, dated 2018)

Experiments:
[1] = target: AM2 S31N (serine→asparagine mutation at residue 31 in the M2 protein) (Influenza A virus, UniProt P0DOF5, S31N); format: cell-based, influenza virus A/Udorn/72
[2] = target: AM2 V27A (valine→alanine mutation at residue 27 in the M2 protein) (Influenza A virus, UniProt P0DOF5, V27A); format: cell-based, influenza virus A/Udorn/72

Row | Compound | S31N OOcyte Inhibition at 100 uM (%) [1] | V27A OOcyte Inhibition at 100 uM (%) [2]
1 | c1coc(-c2ccc(CNC34CC5CC(CC(C5)C3)C4)cn2)c1 [Example 60a, N-((6-(furan-2-yl)pyridin-3-yl)methyl)adamantan-1-amine] | A (key: (A)=31-95%; (B)=0-30%) | B (key: (A)=31-95%; (B)=0-30%)
2 | c1cnc2ccc(CNC34CC5CC(CC(C5)C3)C4)cc2c1 [Example 39a, Adamantan-1-yl-quinolin-6-ylmethyl-amine] | A (key: (A)=31-95%; (B)=0-30%) | B (key: (A)=31-95%; (B)=0-30%)
3 | Cc1ncc(-c2ccc(CNC34CC5CC(CC(C5)C3)C4)s2)s1 [Example 154a, N-((5-(2-methylthiazol-5-yl)thiophen-2-yl)methyl)adamantan-1-amine] | A (key: (A)=31-95%; (B)=0-30%) | A (key: (A)=31-95%; (B)=0-30%)
